Assay [1] concerns the target T1, bovine plasminogen (Bos taurus, UniProt P06868).
T1 construct: purchased Sigma Chemicals; host or cells: bovine plasma
The experiment in a line: Inhibitor kinetics: plasminogen amidolytic activity. The assay is classed as biochemical. As to conditions: substrate L-pNA, BAPNA (0.2 mM). The protocol:
(§1) All enzymes and substrates were obtained from Sigma Chemicals if not otherwise specified. […] The release of pNa moiety was monitored as described above for 7 minutes with each point being the average of three independent triplicate reactions. IC50 was determined using the Prism 5 software suite (GraphPad software Inc.).

For assay [2], the target named is T2, KLK5 (Homo sapiens, UniProt Q9Y337). In words: Protein proteolysis: fibrinogen digestion by KLK5. To be noted: up to a concentration of 2 μM. It counts as biochemical.
Assay [3] deals with KLK4 (Homo sapiens, UniProt Q9Y5K2). In words: Protein proteolysis: fibrinogen digestion by KLK4 (SDS-PAGE). It counts as biochemical. Further details: pro-region of PSA (KLK3), replacing the native KLK4 pro-region (only if the E. coli preparation was used) (N, cleaved yes); made in house. To be noted: 2.5 nM KLK4, SDS-PAGE. The protocol:
(§2) Fibrinogen was solubilised in assay buffer to a final concentration of 1 mg/ml and digested with KLK4 (+/−inhibitor) over a period of 90 minutes at 37° C. Typically assays consisted of 5 μM protein substrate and 2.5 nM KLK4 protein or 1 nM trypsin made up to a final volume of 8 μl with assay buffer. Proteolysis was initiated by addition of KLK4 and terminated by addition of SDS PAGE sample buffer and heat denaturation at 100° C. for 5 minutes. Hydrolysis products were resolved on 10% SDS PAGE gels and compared with incubations terminated immediately after initiation (time 0), and substrate proteins incubated in assay buffer for 90 minutes in the absence of KLK4 or 4-16 mins with trypsin.

Assay [4] addresses T3, iKLK14 (Homo sapiens, UniProt Q9P0G3).
T3 construct: made in house
In words: Inhibitor kinetics: KLK14 amidolytic activity. It counts as biochemical.

Assay [5] concerns iKLK4. The experiment in a line: KLK4 stimulated calcium release in LMF stably expressing human PAR-2. It counts as cell-based. The protocol:
Lung murine fibroblasts (LMF) from Par-1 null mice stably expressing human PAR-2 were grown to 80% confluence as previously described, washed with PBS, detached nonenzymatically, resuspended (4×10^6 cells/ml) in extracellular medium (121 mM NaCl, 5.4 mM KCl, 0.8 mM MgCl2, 1.8 mM CaCl2, 5.5 mM glucose, 25 mM HEPES (pH 7.4)) containing 0.2% (w/v) bovine serum albumin (Sigma) and then loaded with the fluorescence indicator Fura-2 acetoxymethyl ester (1.0 μM; Invitrogen) at room temperature for 60 min. Cells were then pelleted followed by resuspension in extracellular medium (without bovine serum albumin) at a concentration of 2×10^6 cells/ml for fluorescence measurements. The ratio of fluorescence at 510 nm after excitation at 340 and 380 nm was monitored (Polarstar Optima fluorescent plate reader) during treatment with bovine β trypsin (Sigma Chemicals), PAR-2 activating peptide SLIGKV (AusPep) and iKLK4 with or without SFTI-FCQR.

For assay [6], the target named is T4, bovine thrombin (Bos taurus, UniProt P00735).
T4 construct: purchased Sigma Chemicals
The experiment in a line: Inhibitor kinetics: thrombin amidolytic activity. The assay is classed as biochemical. To be noted: substrate Bz-FVR-pNA (0.2 mM). The protocol:
as §1

For assay [7], the target named is T5, human matriptase (Homo sapiens, UniProt Q9Y5Y6).
T5 construct: purchased R&D Systems
T5 sequence (Q9Y5Y6 615-855 limits assumed): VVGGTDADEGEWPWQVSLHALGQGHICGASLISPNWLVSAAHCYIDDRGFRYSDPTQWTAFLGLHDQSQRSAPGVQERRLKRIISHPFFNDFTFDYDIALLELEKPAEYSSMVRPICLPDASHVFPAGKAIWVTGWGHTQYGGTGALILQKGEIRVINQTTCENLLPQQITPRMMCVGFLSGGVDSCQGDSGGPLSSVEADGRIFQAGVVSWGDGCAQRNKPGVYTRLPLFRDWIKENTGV
The experiment in a line: Inhibitor kinetics: matriptase amidolytic activity. The assay is classed as biochemical. As to conditions: substrate Bz-FVR-pNA (0.2 mM). The protocol:
as §1

The target in assay [8] is T2, KLK5. The experiment in a line: Inhibitor kinetics: KLK5 amidolytic activity. It counts as biochemical. As to conditions: substrate Bz-PFR-pNA (0.2 mM).
For assay [9], the target named is T6, trypsin (Bos taurus, UniProt P00760).
T6 construct: purchased Sigma Chemicals
In words: Protein proteolysis: fibrinogen digestion by trypsin (SDS-PAGE). It counts as biochemical, bovine. As to conditions: up to a concentration of 2 μM. The protocol: as §2

Like-named read-outs stand apart in the source and are kept apart here. Bridge positions count the residues as written; N and C are the ends. Peptide text beside a SMILES is read from it. A value given as a limit tells only on which side of the number the result lay.

A word on the IC50: it is the concentration that inhibits the measured activity by half.

T2 sequence (Q9Y337 23-293): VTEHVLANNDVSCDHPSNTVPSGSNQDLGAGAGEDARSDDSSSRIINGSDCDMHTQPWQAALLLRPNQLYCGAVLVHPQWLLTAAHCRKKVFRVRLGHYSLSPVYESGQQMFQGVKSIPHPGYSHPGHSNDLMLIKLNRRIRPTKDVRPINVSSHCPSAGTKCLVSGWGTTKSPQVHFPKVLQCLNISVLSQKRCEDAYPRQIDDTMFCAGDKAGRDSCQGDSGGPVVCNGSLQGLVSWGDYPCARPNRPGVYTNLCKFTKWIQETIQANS
T1 sequence (P06868 27-812 limits assumed): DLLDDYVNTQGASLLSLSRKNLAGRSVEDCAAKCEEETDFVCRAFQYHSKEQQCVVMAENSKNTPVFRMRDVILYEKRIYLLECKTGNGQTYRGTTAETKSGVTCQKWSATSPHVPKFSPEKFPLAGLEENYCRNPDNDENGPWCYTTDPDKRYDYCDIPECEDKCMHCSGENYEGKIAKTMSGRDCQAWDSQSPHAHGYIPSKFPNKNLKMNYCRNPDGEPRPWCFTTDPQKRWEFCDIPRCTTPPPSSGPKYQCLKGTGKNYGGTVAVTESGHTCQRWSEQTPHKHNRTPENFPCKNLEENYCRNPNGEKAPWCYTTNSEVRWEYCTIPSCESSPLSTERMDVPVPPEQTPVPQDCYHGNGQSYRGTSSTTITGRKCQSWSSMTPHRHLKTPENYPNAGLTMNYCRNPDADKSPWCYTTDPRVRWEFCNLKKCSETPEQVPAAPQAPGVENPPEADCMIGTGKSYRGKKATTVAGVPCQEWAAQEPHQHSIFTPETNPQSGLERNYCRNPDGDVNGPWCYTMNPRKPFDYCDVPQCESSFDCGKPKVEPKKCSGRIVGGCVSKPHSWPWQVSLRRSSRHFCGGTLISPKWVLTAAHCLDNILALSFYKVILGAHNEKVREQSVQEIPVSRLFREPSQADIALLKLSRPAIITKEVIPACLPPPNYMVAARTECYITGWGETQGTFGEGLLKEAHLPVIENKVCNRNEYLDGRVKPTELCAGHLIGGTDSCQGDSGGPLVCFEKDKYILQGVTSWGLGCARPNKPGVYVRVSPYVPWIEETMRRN
Sequence of KLK4 (Q9Y5K2 31-254): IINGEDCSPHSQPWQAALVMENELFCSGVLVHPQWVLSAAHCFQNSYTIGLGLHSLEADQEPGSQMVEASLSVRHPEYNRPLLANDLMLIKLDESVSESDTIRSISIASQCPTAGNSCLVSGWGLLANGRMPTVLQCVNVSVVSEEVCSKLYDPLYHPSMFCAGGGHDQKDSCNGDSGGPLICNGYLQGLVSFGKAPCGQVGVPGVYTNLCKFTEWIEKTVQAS
T6 sequence (P00760 18-246 limits assumed): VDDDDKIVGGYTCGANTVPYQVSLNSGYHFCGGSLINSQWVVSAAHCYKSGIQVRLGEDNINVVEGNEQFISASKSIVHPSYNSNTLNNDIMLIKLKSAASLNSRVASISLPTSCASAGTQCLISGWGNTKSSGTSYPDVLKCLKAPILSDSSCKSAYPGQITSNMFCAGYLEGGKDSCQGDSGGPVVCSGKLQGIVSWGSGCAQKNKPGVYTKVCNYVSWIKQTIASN
T3 sequence (Q9P0G3 41-267): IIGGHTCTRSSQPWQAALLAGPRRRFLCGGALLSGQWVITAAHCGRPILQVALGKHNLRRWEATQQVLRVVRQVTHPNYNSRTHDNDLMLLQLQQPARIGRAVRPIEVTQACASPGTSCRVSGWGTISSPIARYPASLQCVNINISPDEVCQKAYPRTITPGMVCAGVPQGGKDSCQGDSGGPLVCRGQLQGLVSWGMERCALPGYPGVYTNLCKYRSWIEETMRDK

For the molecule `CC[C@H](C)[C@@H]1NC(=O)[C@@H]2CCCN2C(=O)[C@@H]2CCCN2C(=O)[C@H]([C@@H](C)CC)NC(=O)[C@H](CO)NC(=O)[C@H](CCCNC(=N)N)NC(=O)[C@H](CCC(N)=O)NC(=O)[C@@H]2CSSC[C@H](NC1=O)C(=O)N[C@@H](Cc1ccccc1)C(=O)N1CCC[C@H]1C(=O)N[C@@H](CC(=O)O)C(=O)NCC(=O)N[C@@H](Cc1ccccc1)C(=O)N2` [SFTI-FCQR] (cyclo(GFCQRSIPPICFPD); disulfide 3-11), the IC50 entry in assay [1] was “did not inhibit”; in assay [1] (read-out: IC50), greater than 10000 nM; in [4] it was 1510 ± 37.1 nM; in assay [6], “did not inhibit”; in assay [6] (read-out: IC50), greater than 10000 nM; in [7], “did not inhibit”. In addition, the IC50 is greater than 10000 nM in assay [7] (read-out: IC50) and 2350 ± 721 nM in assay [8]. Moreover, in assay [2], the “inhibition of KLK5 digestion of fibrinogen” value was “no inhibition”. For the same molecule, the “concentration giving complete inhibition of fibrinogen proteolysis by KLK4” value in [3] is on record as 250 nM. Also, the “effect on KLK4 stimulated calcium release” value in assay [5] (1 μM SFTI-FCQR, iKLK4 300 nM) was “extremely robust blockade of calcium release”. Further, the “inhibition of KLK4 stimulated calcium flux” value in [5] (at a concentration of 1 mM (as printed in discussion)) is “complete inhibition”. Moreover, the “inhibition of tryptic digestion of fibrinogen” value in assay [9] is recorded as “no inhibition”.
